Experimental data from paper PMC5733478, “A Non-imaging High Throughput Approach to Chemical Library Screening at the Unmodified Adenosine-A3 Receptor in Living Cells” (Frontiers in Pharmacology, 2017).
Structures can show the parent of a compound that is named as a salt.

Target: T1, human A3AR (Homo sapiens, UniProt P0DMS8)
T1 construct: expressed in transfected cells
T1 sequence (P0DMS8 1-318): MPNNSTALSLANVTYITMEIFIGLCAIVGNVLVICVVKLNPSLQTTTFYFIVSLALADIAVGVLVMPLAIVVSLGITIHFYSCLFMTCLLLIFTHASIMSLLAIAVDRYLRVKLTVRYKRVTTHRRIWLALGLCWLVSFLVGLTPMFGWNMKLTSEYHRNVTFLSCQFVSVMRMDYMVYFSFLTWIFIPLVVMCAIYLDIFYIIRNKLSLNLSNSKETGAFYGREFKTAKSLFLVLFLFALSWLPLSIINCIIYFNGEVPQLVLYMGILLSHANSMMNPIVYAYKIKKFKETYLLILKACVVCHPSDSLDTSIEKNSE
Assay: LOPAC library primary screen: single concentration (10 μM) inhibition of 25 nM CA200645 binding, PHERAstar FS
Conditions: not given

Point of comparison: `CCN(CC)CCNC(=O)c1ccc(NS(C)(=O)=O)cc1.Cl.O` [Sematilide monohydrochloride monohydrate], “% 25 nM CA200645 binding” value 97.5 ± 2.4%. Against it:
- Nc1nc2c(ncn2[C@@H]2O[C@H](CO)[C@@H](O)[C@@H]2O)c(=O)[nH]1.O [Ara-G hydrate] — within error, 96.8 ± 6.9%
- CC(N)Cc1c[nH]c2ccc(O)cc12.O=C(O)/C=C\C(=O)O (stereo not drawn) [alpha-Methyl-5-hydroxytryptamine maleate] — higher, 115.5 ± 12.2%
- Oc1ccc(Cn2cc[nH]c2=S)cc1 [1-(4-Hydroxybenzyl)imidazole-2-thiol] — within error, 87.3 ± 21.6%
- O=c1[nH]c2ccccc2n1CCCN1CCC(n2c(=O)[nH]c3cc(Cl)ccc32)CC1 [Domperidone] — within error, 99.6 ± 10.5%
- CC(C)(C)NCC(O)c1ccccc1Cl (stereo not shown) [Tulobuterol hydrochloride] — within error, 99.9 ± 4.7%
- CCCc1c(-c2ccc(O)cc2)nn(-c2ccc(O)cc2)c1-c1ccc(O)cc1 — lower, 35.7 ± 9.6%
- O=c1ccn([C@@H]2O[C@H](COP(=O)([O-])OP(=O)([O-])O)[C@@H](O)[C@H]2O)c(=O)[nH]1.[Na+].[Na+] [Uridine 5'-diphosphate sodium] — within error, 100.6 ± 5.7%
- Nc1nc2c(nc(Br)n2[C@@H]2O[C@@H]3COP(=O)([O-])O[C@H]3[C@H]2O)c(=O)[nH]1.[Na+] [8-Bromo-cGMP sodium] — within error, 102.4 ± 7.4%
- Cl.NCC(O)c1ccc(O)cc1 (racemic) [(±)-Octopamine hydrochloride] — higher, 103.0 ± 1.6%
- CNc1ccc2oc(C[C@H]3O[C@@]4(CC[C@H]3C)O[C@H]([C@H](C)C(=O)c3ccc[nH]3)[C@H](C)C[C@H]4C)nc2c1C(=O)O [Calcimycin] — lower, 38.9 ± 3.3%
- CCCCNC(=O)NS(=O)(=O)c1ccc(C)cc1 [Tolbutamide] — within error, 101.8 ± 7.4%
- CCCCc1oc2ccccc2c1C(=O)c1cc(I)c(OCCN(CC)CC)c(I)c1 [Amiodarone hydrochloride] — within error, 91.5 ± 10.5%
- CCOC(=O)C1=C(C)NC(C)=C(C(=O)OC)C1c1cccc(Cl)c1Cl (stereo not shown) [Felodipine] — lower, 79.1 ± 13.7%
- CCN(CC)CCOC(=O)c1cc(Cl)c(N)cc1OC.Cl [SDZ-205,557 hydrochloride] — within error, 87.0 ± 9.3%
- O=C1NC(=O)/C(=C/c2ccc3c(c2)OC(F)(F)O3)S1 [AS 604850] — lower, 58.3 ± 11.4%
- C[C@]12C[C@H](O)[C@H]3[C@@H](CCC4=CC(=O)CC[C@@]43C)[C@@H]1CC[C@@H]2C(=O)CO [Corticosterone] — within error, 99.8 ± 5.3%
- NC(=O)NO [Hydroxyurea] — within error, 107.6 ± 23.3%
- Cl.Clc1ccc(N2CCN(Cc3c[nH]c4ncccc34)CC2)cc1 [L-745,870 hydrochloride] — higher, 105.7 ± 4.1%
- CC1(C)CCC=[N+]1[O-] [5,5-Dimethyl-1-pyrroline-N-oxide] — higher, 106.0 ± 5.3%
- O=c1c2ccccc2nc2n1CCc1c-2[nH]c2ccccc12 [Rutaecarpine] — lower, 34.3 ± 2.1%
- NC(=S)c1ccc[n+]([C@@H]2O[C@@H](COP(=O)([O-])OP(=O)(O)OC[C@H]3O[C@@H](n4cnc5c(N)ncnc54)C(OP(=O)([O-])O)[C@H]3O)C(O)C2O)c1.[Na+] (stereo partly shown) [Thio-NADP sodium] — within error, 101.4 ± 10.4%
- CCN1CCC[C@H]1CNC(=O)c1cc(S(N)(=O)=O)ccc1OC [(-)-Sulpiride] — within error, 103.0 ± 8.9%
- O=c1c(O)c(-c2cc(O)c(O)c(O)c2)oc2cc(O)cc(O)c12 [Myricetin] — lower, 62.7 ± 9.0%
- C[N+]1(C)CCN(c2ccccc2)CC1.[I-] — within error, 102.6 ± 13.3%
- CC(C)[C@H]1CN[C@H](C(=O)O)[C@H]1CC(=O)O [Dihydrokainic acid] — within error, 92.4 ± 30.0%
- NNc1nncc2ccccc12 [Hydralazine hydrochloride] — within error, 100.6 ± 8.6%
- CCCCS(=N)(=O)CC[C@H](N)C(=O)O (stereo partly drawn) [L-Buthionine-sulfoximine] — within error, 98.1 ± 5.3%
- CSc1ccc(C(=O)c2[nH]c(=O)[nH]c2C)cc1 [Enoximone] — within error, 102.3 ± 5.2%
- OCC(CO)(CBr)CBr [BBMP] — within error, 93.9 ± 9.9%
- CCn1nc(C(=O)O)c(=O)c2cc3c(cc21)OCO3 [Cinoxacin] — within error, 96.9 ± 2.7%
- NCCc1c[nH]c2ccc(O)cc12 [Serotonin hydrochloride] — within error, 95.8 ± 9.3%
- COc1ccccc1N1CCN(CCN2C(=O)CC3(CCCC3)CC2=O)CC1.Cl.Cl [BMY 7378 dihydrochloride] — within error, 82.8 ± 23.0%
- O=C(O)c1cc([N+](=O)[O-])ccc1NCCCc1ccccc1 — higher, 120.8 ± 13.5%
- COc1ccc2[nH]c3c(c2c1)CCNC3 — lower, 93.4 ± 1.1%
- CN(C)CCC=C1c2ccccc2C=Cc2ccccc21 [Cyclobenzaprine hydrochloride] — within error, 85.3 ± 24.5%
- C[C@@H](N)Cc1cnc[nH]1.Cl.Cl — within error, 98.7 ± 8.4%
- NC(=O)C(=O)O [Sodium Oxamate] — within error, 96.5 ± 14.4%
- NC(=O)c1cn(Cc2c(F)cccc2F)nn1 [Rufinamide] — within error, 100.9 ± 12.8%
- O=C(O)CCC(=O)N1CCC[C@H]1C(=O)O [N-Succinyl-L-proline] — lower, 81.8 ± 11.2%
- CN1CCc2cccc(Cl)c2CC1 [SKF 86466] — within error, 103.0 ± 12.5%
- Cc1cn(C2CC(N=[N+]=[N-])C(CO)O2)c(=O)[nH]c1=O (stereo not shown) [3'-Azido-3'-deoxythymidine] — within error, 82.3 ± 18.1%
- CNCCC(Oc1ccccc1OC)c1ccccc1 (stereo not shown) [Nisoxetine hydrochloride] — within error, 97.3 ± 6.5%
- CC(C)Cc1ccc([C@H](C)C(=O)O)cc1 [S(+)-Ibuprofen] — within error, 107.7 ± 17.0%
- COc1cc(NS(C)(=O)=O)ccc1Nc1c2ccccc2nc2ccccc12 [Amsacrine hydrochloride] — within error, 99.8 ± 8.3%
- O=C1C(SCCO)=C(SCCO)C(=O)c2ccccc21 [NSC 95397] — within error, 96.3 ± 15.0%
- CCC1(c2ccc(N)cc2)CCC(=O)NC1=O (racemic) [(±)-p-Aminoglutethimide] — within error, 94.1 ± 8.7%
- COC(=O)C1=CO[C@@H](O)[C@@H]2C(CO)=CC[C@H]12 [Genipin] — within error, 96.3 ± 9.0%
- Cc1c2ccncc2c(C)c2c1[nH]c1ccccc12 [Ellipticine] — within error, 78.2 ± 23.8%
- CN1[C@@H](CC(=O)c2ccccc2)CCC[C@H]1C[C@H](O)c1ccccc1.Cl [alpha-Lobeline hydrochloride] — within error, 90.3 ± 6.6%
- Cn1c(=O)c2[nH]c(C3CCCC3)nc2n(C)c1=O [8-Cyclopentyl-1,3-dimethylxanthine] — within error, 96.1 ± 9.6%

Same assay, conditions: compounds tested at 10 µM; % of control wells (1% DMSO and 25 nM CA200645); […]; mean ± SD, three experiments in duplicate

`CCCCNc1cc(C(=O)O)cc(S(N)(=O)=O)c1Oc1ccccc1` [Bumetanide] was tested, and the “% 25 nM CA200645 binding” value was 94.3 ± 2.5%.

Same assay, conditions: compounds tested at 10 µM; % of control wells (1% DMSO and 25 nM CA200645); whole live cells expressing the A3AR; mean ± SD, three experiments in duplicate

Point of comparison: `[H]/N=C(/NC)NCCC[C@H](N)C(=O)O` [NG-Monomethyl-L-arginine acetate], “% 25 nM CA200645 binding” value 112.2 ± 7.1%. Against it:
- CSc1ccc2c(c1)C(N1CCN(C)CC1)Cc1ccccc1S2 (stereo not shown) [Methiothepin mesylate] — the same, 112.2 ± 9.4%
- CCNC(=O)N1CCN(CCCC(c2ccc(F)cc2)c2ccc(F)cc2)CC1 [Amperozide hydrochloride] — lower, 92.9 ± 0.6%
